Test results reported in patent US20090081192A1, “METHODS OF SCREENING FOR COMPOUNDS HAVING ANTI-INFLAMMATORY ACTIVITY” (FIBREX MEDICAL RESEARCH & DEVELOPMENT GMBH, priority 2007, published 2009).
Marks after values point to notes of the source that are not given here.

Columns and labels:
Assay type in all cases: cell-based, human
RhoA = assay: Thrombin induced RhoA activation pull-down assay in HUVEC; settings: substance alone, thrombin 5 U/ml
Source text: (§1) The useful methods of analysing the activation status of Rac1 and RhoA are based on the principle of the so-called pull down assay. In this format, the GTP-bound active state of the respective protein in a cell lysate is bound to an immobilized binding partner and detected with a monoclonal antibody (MAb) specifically directed against the protein in question. The amount of the GTP-bound active state can subsequently be quantified through suitable detection methods, including but not limited to Western blotting or luminescence detection.
The lysate is added to a suitably immobilized rhotekin-binding domain (RBD) and the signal measured with an appropriate detection method.
HUVEC are grown to confluence under standard conditions. Before induction of Rho activity HUVEC were starved for 4 h by using IMDM (Gibco) without growth factor and serum supplements. After the starvation period 5 U/ml Thrombin (Calbiochem) or 5 U thrombin plus 50 μg/ml of test compound are added to the starvation medium for 1, 5 and 10 min. Active RhoA was isolated using Rho Assay Reagent from Upstate according to manufactures instructions. Isolates were separated on a 15% polyacrylamid gel and blotted on Nitrocellulose-Membrane (Bio-Rad). RhoA was detected by using Anti-Rho (-A, -B, -C), clone55 from Upstate (1:500).

FAK = assay: Thrombin induced FAK phosphorylation at autophosphorylation site Tyr397 in HUVEC (immunoprecipitation / western blot); settings: substance alone, compound 50 μg/ml, thrombin 1 U/ml
Procedure: For measuring the inhibition of thrombin meditated FAK phosphorylation in HUVECs, the cells are incubated under suitable conditions with a suitable amount of thrombin with and without the test compound for various periods of time up to 60 min and lysed afterwards lysates were subjected to SDS-PAGE and western blot analysis with site-specific antibodies directed against FAK phosphorylated tyrosine residues.
HUVEC were incubated with FX06 (50 μg/ml), Thrombin (1 U/ml, Sigma Aldrich) and Thrombin/test compound for indicated time points. After washing with ice cold PBS (GIBCO), cells were scrapped in Tris-lysis buffer (plus 1% Triton X (Bio-Rad), NP40 (Sigma Aldrich) and proteinase and phosphatase inhibitory cocktails (Sigma Aldrich)) from culture flasks and lysed for 20 min on ice. Lysates were heavily vortexed every 5 min. After lysis lysates were centrifuged (15.000 rpm/10 min/4° C.) and supernatants were added to 50 μl sepahrose beads (Sigma Aldrich) preincubated with 1 μg total FAK antibody (BD Transduction Laboratories). Beads were agitated on the wheel for 2 h at 4° C., followed by 3 times washing with ice cold PBS, the addition of 2× sample buffer and incubation at 95° C. for 5 min. The sample buffer was then removed from the beads and applied to western blotting.
10% polyacrylamide gels were run for separating precipitated proteins. Gels were blotted onto PVDF (Bio-Rad) membranes using the hoefer semi dry blotting system. Membranes were then washed with TBS/0.5% TWEEN (TBST), blocked with 1% BSA/TBST for 1 h at RT and then incubated with the p397 FAK antibody (0.2 μg/ml; BD Transduction Laboratories) in 1% BSA/TBST over night at 4° C. For detection, a HRP-labeled goat anti-mouse Ab (1:25 000; Bio-Rad) in TBST was used and bound Abs were visualized by chemiluminescence (ECL-system, Amersham Corp., Arlington Heights, Ill.) and recorded on film.

Rac1 = Rac1 activation pull-down assay in HUVECs; settings: HUVEC, substance alone, test compound 50 μg/ml
Source text: as §1
The lysate is added to a suitably immobilized p21-binding domain (PBD) of p21-activated protein kinase (PAK) and the amount of activated Rac1 is quantified with a Rac1-specific MAb.
HUVECs are grown to confluence under standard conditions. Before induction of Rac1 activity HUVECs were starved for 4 h by using IMDM (Gibco) without growth factor and serum supplements. Rac1 activity is induced by adding 50 μg/ml of test compound into starvation medium for 1, 5 and 10 min. Active Rac1 was isolated using Rac1/Cdc42 Assay Reagent from Upstate according to manufactures instructions. Isolates were separated on a 15% polyacrylamid gel and blotted on Nitrocellulose-Membranes (Bio-Rad). Rac1 was detected by using Anti-Rac1 clone23A8, anti-mouse from Upstate (1:250).

In the case of thrombin, the “Active RhoA, relative values compared to unstimulated control” value (shortened to “Active RhoA, relative values”) (RhoA; 1 min) is reported as 2.5 +/− 0.2*, the “Active RhoA, relative values” value (RhoA; 5 min) is reported as 2.5 +/− 0.2* and the “Active RhoA, relative values” value (RhoA; 10 min) is reported as 1 +/− 0.2. For the same substance, the “FAK phosphorylation (p397), relative values compared to unstimulated control” value (FAK; 1 min) was 4.5 +/− 0.2*, the “FAK phosphorylation (p397), relative values compared to unstimulated control” value (FAK; 5 min) was 4.5 +/− 0.2* and the “FAK phosphorylation (p397), relative values compared to unstimulated control” value (FAK; 10 min) was 3.8 +/− 0.1*. For the same substance, the “Active Rac1, relative values compared to unstimulated control” value (“Active Rac1, relative values” below) (Rac1; 1 min) was 0.5 +/− 0.2*, the “Active Rac1, relative values” value (Rac1; 5 min) was 0.5 +/− 0.2* and the “Active Rac1, relative values” value (Rac1; 10 min) was 1 +/− 0.1.
